US10131657B2, “Bromodomain inhibitors” (AbbVie Inc., priority 2013, dated 2018)

Legend:
[1] = molecular target: T1, BRD4 (BDI_K57-E168) (Homo sapiens, UniProt O60885); assay: TR-FRET bromodomain binding assay, BRD4 first bromodomain; settings: His-tagged BRD4 BD1, 100 nM Alexa647 probe; Ki calculated from IC50, probe Kd and probe concentration
T1 construct: BD1: amino acids K57-E168; made in house
Experimental: (§1) A time-resolved fluorescence resonance energy transfer (TR-FRET) assay was used to determine the affinities of compounds of the Examples listed in Table 1 for each bromodomain of BRD4. His-tagged first (BD1: amino acids K57-E168) and second (BD2: amino acids E352-E168) bromodomains of BRD4 were expressed and purified. An Alexa647-labeled BET-inhibitor was used as the fluorescent probe in the assay.
(§2) Compound dilution series were prepared in DMSO via a 3-fold serial dilution from 2.5 mM to 42 nM. Compounds were then diluted 6:100 in assay buffer (20 mM Sodium Phosphate, pH 6.0, 50 mM NaCl, 1 mM Ethylenediaminetetraacetic acid disodium salt dihydrate, 0.01% Triton X-100, 1 mM DL-Dithiothreitol) to yield 3× working solutions. Six microliters (μL) of the working solution was then transferred to white, low-volume assay plates (Costar #3673). A 1.5× assay mixture containing His-tagged bromodomain, Europium-conjugated anti-His antibody (Invitrogen PV5596) and the Alexa-647-conjugated probe molecule was also prepared. Twelve μL of this solution were added to the assay plate to reach a final volume of 18 μL. The final concentration of 1× assay buffer contains 2% DMSO, 50 μM-0.85 nM compound, 8 nM His-tagged bromodomain, 1 nM Europium-conjugated anti-His-tag antibody and 100 nM or 30 nM probe (for BDI or BDII, respectively). After a one-hour incubation at room temperature, TR-FRET ratios were determined using an Envision multilabel plate reader (Ex 340, Em […]).
(§3) TR-FRET data were normalized to the means of 24 no-compound controls (“high”) and 8 controls containing 1 μM un-labeled probe (“low”). […] Inhibition constants (Ki) were calculated from the IC50s, probe Kd and probe concentration. […] The minimum significant ratio was determined to evaluate assay reproducibility (Eastwood et al., (2006) J Biomol Screen, 11: 253-261). The MSR was determined to be 2.03 for BDI and 1.93 for BDII, and a moving MSR (last six run MSR overtime) for both BDI and BDII was typically <3.

[2] = molecular target: T2, BRD4 (BDII_E352-M457) (Homo sapiens, UniProt O60885); assay: TR-FRET bromodomain binding assay, BRD4 second bromodomain; settings: His-tagged BRD4 BD2, 30 nM Alexa647 probe; Ki calculated from IC50, probe Kd and probe concentration
T2 construct: made in house
Experimental: as §1, §2, §3

[3] = test system: breast cancer cell line MX-1; assay: MX-1 cell line proliferation assay, Method A; format: cell-based; settings: Homo sapiens, MX1; MX-1 cells, 96-well, 72 hours, Cell Titer Glo; read-out: Cellular proliferation: EC50 Method A
Method in brief: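 MX-1 breast cancer cells (5000/well) were attached overnight in RPMI 1640 with 10% FBS, then exposed for 3 days to compound at 0.0001–3 μM final. Cell Titer Glo luminescence was normalized to DMSO controls, and EC50s were obtained by sigmoidal fitting.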

Row | Structure (SMILES) | Ki [1] [nM] | Ki [2] [nM] | EC50 [3] [nM]
1 | COc1ccc(S(=O)(=O)Nc2cccc(Oc3ccc(S(C)(=O)=O)cc3-c3cn(C)c(=O)c4[nH]ccc34)c2)cc1OC [Example 53, 3,4-dimethoxy-N-{3-[2-(6-methyl-7-oxo-6,7-dihydro-1H-pyrrolo[2,3-c]pyridin-4-yl)-4-(methylsulfonyl)phenoxy]phenyl}benzenesulfonamide] | 3.4 | 1 | 144
2 | Cn1cc(-c2cc(S(C)(=O)=O)ccc2NC2CCN(S(=O)(=O)/C=C/c3ccccc3)CC2)c2cc[nH]c2c1=O [Example 102, 6-methyl-4-{5-(methylsulfonyl)-2-[(1-{[(E)-2-phenylethenyl]sulfonyl}piperidin-4-yl)amino]phenyl}-1,6-dihydro-7H-pyrrolo[2,3-c]pyridin-7-one] | 6 | 6.8 | 67.3
